Results taken from article PMC9557946, “Intermittent MEK inhibition for the treatment of metastatic uveal melanoma” (Frontiers in Oncology, 2022).

Columns and labels:
[1] = Pharmacokinetic analysis in serum (LC-MS/MS, non-compartmental)
Method: Non-compartmental analyses were performed on the data for day 1, 2, 15 and 17 using Winnonlin software (Phoenix Winnonlin 8.3.1.5014, Certara L.P., Princeton, NJ). […] Data were summarized per dose level and per occasion. Dose-exposure relationships were explored by plotting dose versus the various parameters. Accumulation was investigated using the AUC assessed at various days.

[2] = test system: SKMEL28 melanoma cell lines; design: method as in PMID 31874374; conditions: intermittently administered; ref [19]; cited from earlier work

Row | Structure (SMILES) | accumulation ([1]; during three days of dosing and repeated three-day courses) | average terminal half-life ([1]; from 8h serum concentration curves, likely an underestimation) [h] | time to maximum serum concentration after oral intake ([1]; overall) | effect of treatment interruptions on tumor growth [2]
1 | O=C(NOCCO)c1cc2nc[nH]c2c(F)c1Nc1ccc(Br)cc1Cl [N-desmethyl-selumetinib] | little to no accumulation | 4.3 | approximately 1.7 hours | –
2 | O=C(c1ccc(F)c(F)c1Nc1ccc(I)cc1F)N1CC(O)([C@@H]2CCCCN2)C1 [cobimetinib] | – | – | – | Treatment interruptions resulted in tumor regrowth that could not be compensated when drug administration was resumed
